# Measured values reported in ChEMBL document CHEMBL1201862, “PubChem BioAssay data set” (2004).
#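 Exposure lasted 48 hours, with cells grown in 96-well plates and compounds tested at five concentrations. Abbreviation: GI50, concentration required for 50% inhibition of growth.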 The source made the active and inactive calls. Rule as the data show it: active = GI50 up to about 1.1 µM and inactive = higher.
# Experiments:
# Test in all cases: inhibition of tumour cell growth, NCI panel, 48 h
# ACHN = test system: ACHN
# K562 = test system: K562
# Malme-3M = test system: Malme-3M
# IGROV-1 = test system: IGROV-1
# 786-0 = test system: 786-0
# MOLT-4 = test system: MOLT-4
# MDA-MB-231 = test system: MDA-MB-231
# KM12 = test system: KM12
# U-251 = test system: U-251
# HCT-15 = test system: HCT-15
# SNB-19 = test system: SNB-19
# NCI-H460 = test system: NCI-H460
# OVCAR-8 = test system: OVCAR-8
# CCRF-CEM = test system: CCRF-CEM
# MDA-MB-435 = test system: MDA-MB-435
# SK-MEL-2 = test system: SK-MEL-2
# RPMI-8226 = test system: RPMI-8226
# HOP-62 = test system: HOP-62
# MDA-N = test system: MDA-N
# T47D = test system: T47D
# OVCAR-3 = test system: OVCAR-3
# BT-549 = test system: BT-549
# HCT-116 = test system: HCT-116
# COLO 205 = test system: COLO 205
# OVCAR-5 = test system: OVCAR-5
# SN12C = test system: SN12C
# RXF 393 = test system: RXF 393
# HCC 2998 = test system: HCC 2998
# MCF7 = test system: MCF7
# Hs-578T = test system: Hs-578T
# PC-3 = test system: PC-3
# NCI/ADR-RES = test system: NCI/ADR-RES
# SNB-75 = test system: SNB-75
# TK-10 = test system: TK-10
# M14 = test system: M14
# NCI-H226 = test system: NCI-H226
# CAKI-1 = test system: CAKI-1
# OVCAR-4 = test system: OVCAR-4
# UACC-62 = test system: UACC-62
# UO-31 = test system: UO-31
# DU-145 = test system: DU-145
# LOX IMVI = test system: LOX IMVI
# SK-OV-3 = test system: SK-OV-3
# A549 = test system: A549
# SK-MEL-5 = test system: SK-MEL-5
# NCI-H522 = test system: NCI-H522
# UACC-257 = test system: UACC-257
# HT-29 = test system: HT-29
# SF-268 = test system: SF-268
# SF-295 = test system: SF-295
# SR = test system: SR
# A498 = test system: A498
# EKVX = test system: EKVX
# SW-620 = test system: SW-620
# SK-MEL-28 = test system: SK-MEL-28
# NCI-H23 = test system: NCI-H23
# HOP-92 = test system: HOP-92
# HL-60 = test system: HL-60
# SF-539 = test system: SF-539
compound,measurement,setting,value
Cc1nnc2n1-c1ccccc1C(=S)N1CSCC21 (configuration not stated),GI50,ACHN,> 100 µM (inactive)
same,GI50,K562,> 100 µM (inactive)
same,GI50,Malme-3M,> 100 µM (inactive)
same,GI50,IGROV-1,> 100 µM (inactive)
same,GI50,786-0,> 100 µM (inactive)
same,GI50,MOLT-4,> 100 µM (inactive)
same,GI50,MDA-MB-231,> 100 µM (inactive)
same,GI50,KM12,> 100 µM (inactive)
same,GI50,U-251,> 100 µM (inactive)
same,GI50,HCT-15,79.3 µM
same,GI50,SNB-19,> 100 µM (inactive)
same,GI50,NCI-H460,> 100 µM (inactive)
same,GI50,OVCAR-8,> 100 µM (inactive)
same,GI50,CCRF-CEM,> 100 µM (inactive)
same,GI50,MDA-MB-435,> 100 µM (inactive)
same,GI50,SK-MEL-2,> 100 µM (inactive)
same,GI50,RPMI-8226,> 100 µM (inactive)
same,GI50,HOP-62,> 100 µM (inactive)
same,GI50,MDA-N,> 100 µM (inactive)
same,GI50,T47D,> 100 µM (inactive)
same,GI50,OVCAR-3,> 100 µM (inactive)
same,GI50,BT-549,> 100 µM (inactive)
same,GI50,HCT-116,> 100 µM (inactive)
same,GI50,COLO 205,> 100 µM (inactive)
same,GI50,OVCAR-5,> 100 µM (inactive)
same,GI50,SN12C,> 100 µM (inactive)
same,GI50,RXF 393,> 100 µM (inactive)
same,GI50,HCC 2998,> 100 µM (inactive)
same,GI50,MCF7,> 100 µM (inactive)
same,GI50,Hs-578T,> 100 µM (inactive)
same,GI50,PC-3,> 100 µM (inactive)
same,GI50,NCI/ADR-RES,> 100 µM (inactive)
same,GI50,SNB-75,> 100 µM (inactive)
same,GI50,TK-10,> 100 µM (inactive)
same,GI50,M14,> 100 µM (inactive)
same,GI50,NCI-H226,> 100 µM (inactive)
same,GI50,CAKI-1,> 100 µM (inactive)
same,GI50,OVCAR-4,> 100 µM (inactive)
same,GI50,UACC-62,> 100 µM (inactive)
same,GI50,UO-31,> 100 µM (inactive)
same,GI50,DU-145,> 100 µM (inactive)
same,GI50,LOX IMVI,> 100 µM (inactive)
same,GI50,SK-OV-3,> 100 µM (inactive)
same,GI50,A549,> 100 µM (inactive)
same,GI50,SK-MEL-5,> 100 µM (inactive)
same,GI50,NCI-H522,> 100 µM (inactive)
same,GI50,UACC-257,> 100 µM (inactive)
same,GI50,HT-29,> 100 µM (inactive)
same,GI50,SF-268,> 100 µM (inactive)
same,GI50,SF-295,> 100 µM (inactive)
same,GI50,SR,> 100 µM (inactive)
same,GI50,A498,> 100 µM (inactive)
same,GI50,EKVX,> 100 µM (inactive)
same,GI50,SW-620,> 100 µM (inactive)
same,GI50,SK-MEL-28,> 100 µM (inactive)
Fc1cccc(F)c1C1SCc2nc3cc(Cl)c(Cl)cc3n21 (configuration not stated),GI50,ACHN,> 100 µM (inactive)
same,GI50,K562,> 100 µM (inactive)
same,GI50,Malme-3M,> 100 µM (inactive)
same,GI50,IGROV-1,> 100 µM (inactive)
same,GI50,786-0,> 73.5 µM (inactive)
same,GI50,MOLT-4,> 100 µM (inactive)
same,GI50,NCI-H23,> 100 µM (inactive)
same,GI50,MDA-MB-231,> 100 µM (inactive)
same,GI50,KM12,> 100 µM (inactive)
same,GI50,U-251,> 100 µM (inactive)
same,GI50,HCT-15,> 100 µM
same,GI50,SNB-19,> 100 µM (inactive)
same,GI50,NCI-H460,> 100 µM (inactive)
same,GI50,OVCAR-8,> 100 µM (inactive)
same,GI50,CCRF-CEM,> 100 µM (inactive)
same,GI50,MDA-MB-435,> 100 µM (inactive)
same,GI50,SK-MEL-2,> 100 µM (inactive)
same,GI50,RPMI-8226,> 100 µM (inactive)
same,GI50,HOP-62,> 100 µM (inactive)
same,GI50,MDA-N,> 100 µM (inactive)
same,GI50,T47D,> 100 µM (inactive)
same,GI50,OVCAR-3,> 100 µM (inactive)
same,GI50,HOP-92,42.4 µM (inactive)
same,GI50,BT-549,> 100 µM (inactive)
same,GI50,HCT-116,> 100 µM (inactive)
same,GI50,COLO 205,> 100 µM (inactive)
same,GI50,OVCAR-5,> 100 µM (inactive)
same,GI50,SN12C,> 100 µM (inactive)
same,GI50,RXF 393,> 100 µM (inactive)
same,GI50,HCC 2998,> 100 µM (inactive)
same,GI50,MCF7,> 100 µM (inactive)
same,GI50,Hs-578T,> 100 µM (inactive)
same,GI50,PC-3,> 100 µM (inactive)
same,GI50,HL-60,> 100 µM (inactive)
same,GI50,NCI/ADR-RES,> 100 µM (inactive)
same,GI50,SNB-75,95.7 µM (inactive)
same,GI50,TK-10,> 100 µM (inactive)
same,GI50,M14,> 100 µM (inactive)
same,GI50,CAKI-1,> 100 µM (inactive)
same,GI50,OVCAR-4,> 100 µM (inactive)
same,GI50,UACC-62,> 100 µM (inactive)
same,GI50,UO-31,> 100 µM (inactive)
same,GI50,SF-539,> 100 µM (inactive)
same,GI50,DU-145,> 100 µM (inactive)
same,GI50,LOX IMVI,> 100 µM (inactive)
same,GI50,SK-OV-3,> 100 µM (inactive)
same,GI50,A549,> 100 µM (inactive)
same,GI50,SK-MEL-5,> 100 µM (inactive)
same,GI50,NCI-H522,> 100 µM (inactive)
same,GI50,UACC-257,> 100 µM (inactive)
same,GI50,HT-29,> 100 µM (inactive)
same,GI50,SF-268,> 100 µM (inactive)
same,GI50,SF-295,> 100 µM (inactive)
same,GI50,SR,> 100 µM (inactive)
same,GI50,EKVX,> 100 µM (inactive)
same,GI50,SW-620,> 100 µM (inactive)
same,GI50,SK-MEL-28,> 100 µM (inactive)
